# According to patent US12559681B2, “Solubilizing agent and solubilizing solution” (NOF CORPORATION, priority 2020, dated 2026):
# What was measured:
# [1] = Solubilization test of cholecalciferol (vitamin D3): turbidity (absorbance at 450 nm) of a mixture of solubilizing solution and cholecalciferol solution; format: physicochemical; settings: for turbidity: 100 μL + 1 μL cholecalciferol 20 mg/mL in ethanol, absorbance 450 nm minus PBS alone; for turbidity ratio to PBS: cholecalciferol, less than 10% = dissolved
# Procedure: Cholecalciferol (vitamin D3) was dissolved in ethanol at a concentration of 20 mg/mL to prepare a cholecalciferol solution. […] The cholecalciferol solution was dispensed at 1 uL/well. The mixture in each well was stirred for 1 min, and the absorbance of the mixture at a wavelength of 450 nm was measured. In addition, the absorbance of PBS alone not containing cholecalciferol at a wavelength of 450 nm was measured. The difference between the absorbance of the mixture of the solubilizing solution and the cholecalciferol solution at a wavelength of 450 nm and the absorbance of PBS alone at a wavelength of 450 nm was taken as “turbidity of a mixture of a solubilizing solution and a cholecalciferol solution”. A smaller turbidity indicates a larger amount of a hardly water-soluble substance dissolved therein.
# In the same manner as in the above except that PBS was used instead of the solubilizing solution, “turbidity of a mixture of PBS and a cholecalciferol solution” (that is, difference between the absorbance of a mixture of PBS and a cholecalciferol solution at a wavelength of 450 nm and the absorbance of PBS alone at a wavelength of 450 nm) was calculated.
# (§1) As an index for evaluation of whether or not cholecalciferol is dissolved, turbidity ratio to PBS was calculated by the following formula: • turbidity ratio to PBS (%)=100×(turbidity of a mixture of solubilizing solution and cholecalciferol solution)/(turbidity of a mixture of PBS and cholecalciferol solution). When the turbidity ratio to PBS was less than 10%, cholecalciferol was evaluated to have been dissolved.
# [2] = Solubilization test of hydrocortisone: turbidity at 450 nm; format: physicochemical; settings: for turbidity: solubilizing agent 0.050% by mass in PBS, hydrocortisone 20 mg/mL in ethanol, 125 μL/well, absorbance 450 nm minus PBS alone; for turbidity ratio to PBS: solubilizing agent 0.050% by mass, hydrocortisone, less than 10% = dissolved
# Procedure: Hydrocortisone was dissolved in ethanol at a concentration of 20 mg/mL to prepare a hydrocortisone solution.
# In the same manner as above except that PBS was used instead of the solubilizing solution, “turbidity of a mixture of PBS and a hydrocortisone solution” (that is, difference between the absorbance of a mixture of PBS and a hydrocortisone solution at a wavelength of 450 nm and the absorbance of PBS alone at a wavelength of 450 nm) was measured.
# [3] = Solubilization test of lauric acid: turbidity at 450 nm; format: physicochemical; settings: for turbidity: solubilizing agent 5.000% by mass in PBS, lauric acid 100 mg/mL in ethanol, 3 μL/well, absorbance 450 nm minus PBS alone; for turbidity ratio to PBS: solubilizing agent 5.000% by mass, lauric acid, less than 10% = dissolved
# Procedure: Lauric acid was dissolved in ethanol at a concentration of 100 mg/mL to prepare a lauric acid solution.
# In the same manner as above except that PBS was used instead of the solubilizing solution, “turbidity of a mixture of PBS and a lauric acid solution” (that is, difference between the absorbance of a mixture of PBS and a lauric acid solution at a wavelength of 450 nm and the absorbance of PBS alone at a wavelength of 450 nm) was calculated.
# as §1, with “lauric acid” for “cholecalciferol”
# [4] = Solubilization test of myristic acid: turbidity at 450 nm; format: physicochemical; settings: for turbidity: solubilizing agent 5.000% by mass in PBS, myristic acid 100 mg/mL in ethanol, 3 μL/well, absorbance 450 nm minus PBS alone; for turbidity ratio to PBS: solubilizing agent 5.000% by mass, myristic acid, less than 10% = dissolved
# Procedure: Myristic acid was dissolved in ethanol at a concentration of 100 mg/mL to prepare a myristic acid solution.
# In the same manner as above except that PBS was used instead of the solubilizing solution, “turbidity of a mixture of PBS and a myristic acid solution” (that is, difference between the absorbance of a mixture of PBS and a myristic acid solution at a wavelength of 450 nm and the absorbance of PBS alone at a wavelength of 450 nm) was calculated.
# as §1, with “myristic acid” for “cholecalciferol”
# [5] = Solubilization test of DL-α-tocopherol (vitamin E): turbidity at 450 nm; format: physicochemical; settings: for turbidity: DL-α-tocopherol 20 mg/mL in ethanol, 1 μL/well, absorbance 450 nm minus PBS alone; for turbidity ratio to PBS: DL-α-tocopherol, less than 10% = dissolved
# Procedure: DL-α-tocopherol (vitamin E) was dissolved in ethanol at a concentration of 20 mg/mL to prepare a DL-α-tocopherol solution.
# In the same manner as above except that PBS was used instead of the solubilizing solution, “turbidity of a mixture of PBS and a DL-α-tocopherol solution” (that is, difference between the absorbance of a mixture of PBS and a DL-α-tocopherol solution at a wavelength of 450 nm and the absorbance of PBS alone at a wavelength of 450 nm) was calculated.
# As an index for evaluation of whether or not DL-α-tocopherol is dissolved, turbidity ratio to PBS was calculated by the following formula: turbidity ratio to PBS (%)=100×(turbidity of a mixture of solubilizing solution and DL-α-tocopherol solution)/(turbidity of a mixture of PBS and DL-x-tocopherol solution). When the turbidity ratio to PBS was less than 10%, DL-α-tocopherol was evaluated to have been dissolved.
# [6] = Solubility of the hardly water-soluble substance in PBS (statement); settings: PBS without solubilizing agent
# [7] = solubilizing agent 0.025% by mass in PBS
# [8] = solubilizing agent 0.025% by mass
# [9] = solubilizing agent 0.050% by mass in PBS
# [10] = solubilizing agent 0.050% by mass
Compound,"turbidity [1, 7]","turbidity ratio to PBS [1, 8] [%]","turbidity [1, 9]","turbidity ratio to PBS [1, 10] [%]","turbidity [5, 9]","turbidity ratio to PBS [5, 10] [%]",solubility in PBS [6],also measured
"CCCCCCCCCCCCCCCCSCC(C)C(=O)OCCOP(=O)([O-])OCC[N+](C)(C)C (centres unmarked) [Synthetic Example 3, 2-[3-(hexadecylsulfanyl)-2-methylpropionyloxy]ethyl-2-(trimethylammonio)ethyl phosphate]",0.0231,9,0.0139,6,,,,turbidity [2]: 0.0015; turbidity ratio to PBS [2]: 3%; turbidity ratio to PBS ([2]; listed as Example 3-3): less than 10%
Triton X-100 [reference compound],,,0.0331,13,0.2573,147,,"turbidity [3]: 0.0002; turbidity ratio to PBS [3]: 0%; turbidity [4]: 0.0601; turbidity ratio to PBS [4]: 14%; turbidity ratio to PBS ([5]; solubilizing agent 0.050% by mass, listed as Comparative Example 2-2-1): not less than 10%; turbidity [2]: 0.0910; turbidity ratio to PBS [2]: 205%"
CCCCCCCCCCCCCC(=O)O [Myristic acid],,,,,,,insoluble,
CCCCCCCCCCCC(=O)O [Lauric acid],,,,,,,insoluble,
"CCCCCCCCSCC(C)C(=O)OCCOP(=O)([O-])OCC[N+](C)(C)C (centres unmarked) [Synthetic Example 1, 2-[3-(octylsulfanyl)-2-methylpropionyloxy]ethyl-2-(trimethylammonio)ethyl phosphate]",0.0229,9,0.0132,5,0.0000,0,,"turbidity [3]: 0.0000; turbidity ratio to PBS [3]: 0%; turbidity ratio to PBS ([3]; listed as Example 4-1): less than 10%; turbidity [4]: 0.0231; turbidity ratio to PBS [4]: 5%; turbidity ratio to PBS ([4]; listed as Example 5-1): less than 10%; turbidity [5, 7]: 0.0150; turbidity ratio to PBS [5, 8]: 9%"
"Cc1c(C)c2c(c(C)c1O)CCC(C)(CCCC(C)CCCC(C)CCCC(C)C)O2 (racemic) [DL-α-tocopherol, reference compound]",,,,,,,insoluble,
"CCCCCCCCCCCCSCC(C)C(=O)OCCOP(=O)([O-])OCC[N+](C)(C)C (centres unmarked) [Synthetic Example 2, 2-[3-(dodecylsulfanyl)-2-methylpropionyloxy]ethyl-2-(trimethylammonio)ethyl phosphate]",0.0080,3,0.0009,0,0.0153,9,,
